Reference: patent US4554289A, “OF4949” (Takara Shuzo Co., Ltd., priority 1982, dated 1985)

Experiments:
[1] = Neutral, acidic or basic properties; assay type: physicochemical
[2] = system: cellular immunity (delayed type hypersensitivity to sheep erythrocytes); assay: Delayed type hypersensitivity (DTH) to sheep erythrocytes, hind paw edema (cellular immunity); assay type: in vivo, CDF1 strain female mice; details: for Thickness of Edema (Mean Value ± Standard Error): hind paw, 24 hours after challenge; for Potentiating Ratio to Control: control = 100
Procedure: Thus, sheep erythrocytes are used as antigen and 1×10^5 of them are subjected to intravenous injection to CDF1 strain female mice of 10 weeks of age (8 mice per group) and, immediately after the sensitization, a solution of OF4949 or derivatives thereof in a sterilized water is injected intraperitoneally with dosages of 5, 50 or 500 μg/kg and, after four days, 10^8 sheep erythrocytes are injected subcutaneously into left hind paws of the mice. After 24 hours, the degree of edema, i.e. thickness of the paws at that time, observed at the hind paws is measured using a slide calipers.

[3] = Solubilities; assay type: physicochemical
[4] = system: ICR strains of mice; assay: Acute toxicity test, 300 mg/kg intraperitoneally; assay type: in vivo
Procedure: The compounds of the present invention are also characterized by a very low toxicity, making their administration to humans and animals facile. Acute toxicity tests injecting 300 mg/kg intraperitoneally of representative compounds of the present invention to ICR strains of mice produced the toxicity results set forth in Table 9 below: […]

[5] = in methyl alcohol and ethyl alcohol
[6] = in n-propyl alcohol, n-butyl alcohol, acetone, ethyl acetate, chloroform, ether, benzene, and hexane
[7] = in water, alkaline water, and dimethyl sulfoxide

Row | Structure (SMILES) | Neutral, acidic or basic properties [1] | Thickness of Edema (Mean Value ± Standard Error) ([2]; 5 μg/kg intraperitoneally) | Potentiating Ratio to Control ([2]; 5 μg/kg intraperitoneally) | Thickness of Edema (Mean Value ± Standard Error) ([2]; 50 μg/kg intraperitoneally) | Potentiating Ratio to Control ([2]; 50 μg/kg intraperitoneally) | Thickness of Edema (Mean Value ± Standard Error) ([2]; 500 μg/kg intraperitoneally) | Potentiating Ratio to Control ([2]; 500 μg/kg intraperitoneally) | Solubility [3, 5] | Solubility [3, 6] | Solubility [3, 7] | Acute toxicity test result [4]
1 | NC(=O)C(O)C1NC(=O)C(N)Cc2ccc(O)c(c2)Oc2ccc(cc2)CC(C(=O)O)NC1=O (stereo not drawn) [OF4949-II] | amphoteric | 11.7 ± 1.9 × 0.1 mm | 127% | 13.5 ± 1.2 × 0.1 mm | 147% | 11.4 ± 2.6 × 0.1 mm | 124% | hardly soluble | insoluble | soluble | 
2 | COc1ccc2cc1Oc1ccc(cc1)CC(C(=O)O)NC(=O)C(C(O)C(=O)O)NC(=O)C(N)C2 (stereo not drawn) [Compound 18] |  | 8.2 ± 0.7 × 0.1 mm | 117% | 8.5 ± 0.7 × 0.1 mm | 121% | 7.5 ± 0.6 × 0.1 mm | 107% |  |  |  | 
3 | NC1Cc2ccc(O)c(c2)Oc2ccc(cc2)CC(C(=O)O)NC(=O)C(C(O)C(=O)O)NC1=O (stereo not drawn) [Compound 2] |  | 9.3 ± 1.2 × 0.1 mm | 116% | 9.1 ± 1.1 × 0.1 mm | 114% | 10.2 ± 0.9 × 0.1 mm | 128% |  |  |  | 
4 | COc1ccc2cc1Oc1ccc(cc1)CC(C(=O)O)NC(=O)C(C(O)C(N)=O)NC(=O)C(N)C2 (stereo not drawn) [OF4949-I] | amphoteric | 9.5 ± 0.6 × 0.1 mm | 132% | 11.7 ± 1.5 × 0.1 mm | 163% | 9.1 ± 0.5 × 0.1 mm | 126% | hardly soluble | insoluble | soluble | No toxicity is observed
5 | COc1ccc2cc1Oc1ccc(cc1)CC(CO)NC(=O)C(C(O)CO)NC(=O)C(N)C2 (stereo not drawn) [Compound 21] |  | 7.8 ± 0.8 × 0.1 mm | 111% | 7.8 ± 0.7 × 0.1 mm | 111% | 8.7 ± 0.8 × 0.1 mm | 124% |  |  |  | 
6 | COc1ccc2cc1Oc1ccc(cc1)CC(C(N)=O)NC(=O)C(C(O)C(N)=O)NC(=O)C(N)C2 (stereo not drawn) [Compound 17] |  | 8.8 ± 0.7 × 0.1 mm | 126% | 8.4 ± 0.7 × 0.1 mm | 120% | 8.5 ± 0.7 × 0.1 mm | 121% |  |  |  | 
